This is an account of results in ChEMBL document CHEMBL4651402, “Screening of ~5500 FDA-approved drugs and clinical candidates for anti-SARS-CoV-2 activity” (2021).

This experiment has as its system SARS-CoV-2. Description: microbe, parasite or virus in culture. The following applies: Severe acute respiratory syndrome coronavirus 2, Vero C1008, 48 h.

Consider `O=C(OC1C[C@@H]2CC3C[C@@H](C1)N2CC3=O)c1c[nH]c2ccccc12` (stereo partly drawn), for which the IC50 is > 20 µM. Further, the IC50 (read-out: pIC50 (converted)) was > 20 µM.
Take `COc1ccc(Cl)c2c1CCCC2N(C)C` (stereo not drawn) [LOMETRALINE]: the IC50 was > 20 µM. For the same compound, the IC50 (read-out: pIC50 (converted)) is > 20 µM.
Turning to `Cl/C(=C\n1cncn1)c1ccc(Cl)cc1Cl` [LORECLEZOLE], the IC50 was > 20 µM. Further, where the note is “read-out: pIC50 (converted)”, the IC50 was > 20 µM.
On to `CC(C)=CC[C@@H](O)C1=CC(=O)c2c(O)ccc(O)c2C1=O` [SHIKONIN], for which the IC50 is > 20 µM. Moreover, the IC50 (read-out: pIC50 (converted)) was > 20 µM.
`CCCCNc1c(C(=O)OCC)c(C)nc2c1cnn2CC` [TRACAZOLATE]: the IC50 was > 20 µM. The IC50 (read-out: pIC50 (converted)) is > 20 µM.
For `CCCCCCCCCCCCCC(=O)O[C@@H]1[C@@H](C)[C@@]2(O)[C@@H](C=C(CO)C[C@]3(O)C(=O)C(C)=C[C@@H]23)[C@@H]2C(C)(C)[C@]12OC(C)=O` [PHORBOL MYRISTATE ACETATE], the IC50 was > 20 µM. Further, where the note is “read-out: pIC50 (converted)”, the IC50 is > 20 µM.
Take `CN(C)CCOc1ccc2c(=O)c3ccc(OCCN(C)C)cc3oc2c1`: the IC50 was > 20 µM. Besides, the IC50 (read-out: pIC50 (converted)) is > 20 µM.
`Cc1noc(-c2ccc(-c3ccc(C4(C(=O)O)CC4)cc3)cc2)c1NC(=O)O[C@@H](C)c1ccccc1`: the IC50 is > 20 µM. Also, where the note is “read-out: pIC50 (converted)”, the IC50 was > 20 µM.
Consider `Cc1ccccc1-c1cc(N2CCN(C)CC2)ncc1N(C)C(=O)C(C)(C)c1cc(C(F)(F)F)cc(C(F)(F)F)c1` [NETUPITANT], for which the IC50 was > 20 µM. For the same compound, where the note is “read-out: pIC50 (converted)”, the IC50 is > 20 µM.
With `CNC(=O)c1ccc(Nc2ncc(C(F)(F)F)c(NCc3nccnc3N(C)S(C)(=O)=O)n2)cc1` [DEFACTINIB], the IC50 is > 20 µM. The IC50 (read-out: pIC50 (converted)) was > 20 µM.
For `C[C@H](N[C@@H](CCc1ccccc1)C(=O)O)C(=O)N1Cc2ccccc2C[C@H]1C(=O)O`, the IC50 is > 20 µM. The IC50 (read-out: pIC50 (converted)) is > 20 µM.
For the compound `C[C@H](NCc1ccc(OCc2ccccc2F)cc1)C(N)=O` [RALFINAMIDE], the IC50 is > 20 µM. In addition, the IC50 (read-out: pIC50 (converted)) was > 20 µM.
For `CCCCNC(=O)NC1CCN(c2ncnc3cc(OC)c(OC)cc23)CC1` [BUQUINERAN], the IC50 was > 20 µM. Also, the IC50 (read-out: pIC50 (converted)) is > 20 µM.
For `CCC(=O)O[C@]1(C(=O)CCl)[C@@H](C)C[C@H]2[C@@H]3CCC4=CC(=O)C=C[C@]4(C)[C@@]3(F)[C@@H](O)C[C@@]21C` [CLOBETASOL PROPIONATE], the IC50 was > 20 µM. Further, where the note is “read-out: pIC50 (converted)”, the IC50 is > 20 µM.
Take `Cc1cc(CCN2CCN(c3cccc(Cl)c3)CC2)n[nH]1` [MEPIPRAZOLE]: the IC50 is > 20 µM. In addition, where the note is “read-out: pIC50 (converted)”, the IC50 is > 20 µM.
Consider `Cc1cc(C)c(Nc2ccnc(Nc3ccc(C#N)cc3)n2)c(C)c1` [DAPIVIRINE], for which the IC50 is > 20 µM. For the setting “read-out: pIC50 (converted)”, the IC50 was > 20 µM.
Regarding `COC(=O)/C(=C1/OC(=O)C(c2ccccc2)=C1O)c1ccccc1` [VULPINIC ACID], the IC50 is > 20 µM. The IC50 (read-out: pIC50 (converted)) is > 20 µM.
On to `NCCO` [MONOETHANOLAMINE], for which the IC50 is > 20 µM. Further, the IC50 (read-out: pIC50 (converted)) was > 20 µM.
For `CCCN[C@H]1CCc2nc(N)sc2C1` [PRAMIPEXOLE], the IC50 is > 20 µM. Besides, the IC50 (read-out: pIC50 (converted)) is > 20 µM.
For the compound `Cc1ccc(C(=O)c2ccc(CC(=O)O)n2C)cc1` [TOLMETIN], the IC50 is > 20 µM. Also, the IC50 (read-out: pIC50 (converted)) is > 20 µM.
As to `C[C@]1(C(=O)N(CCCC(=O)O)Cc2cccc(Cl)c2)CCN1C(=O)c1csc2ccccc12` [GLPG-0974], the IC50 was > 20 µM. Moreover, under “read-out: pIC50 (converted)”, the IC50 is > 20 µM.
Turning to `CN(C)CCO/N=C(/C=C/c1ccc(O)cc1)c1ccccc1F` [EPLIVANSERIN], the IC50 was > 20 µM. Moreover, the IC50 (read-out: pIC50 (converted)) is > 20 µM.
As to `CO/N=C(\C(=O)N[C@@H]1C(=O)N2C(C(=O)O)=C(C[N+]3(C)CCCC3)CS[C@H]12)c1csc(N)n1`, the IC50 was > 20 µM. Besides, for the setting “read-out: pIC50 (converted)”, the IC50 is > 20 µM.
With `c1cnc(SCc2cccnc2)nc1` [TASULDINE], the IC50 was > 20 µM. For the same compound, the IC50 (read-out: pIC50 (converted)) is > 20 µM.
